# Laboratory results: ChEMBL document CHEMBL1201862, “PubChem BioAssay data set” (2004)
# Activity calls are given as the source filed them.
# Key:
# [1] = Luminescence-based cell-based high throughput dose response assay to identify activators of the DAF-12 from the parasite S. stercoralis (ssDAF-12).; assay type: functional
# [2] = target: T1, Oxysterols receptor LXR-beta (Homo sapiens, UniProt P55055); assay type: functional, cell-based;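 also: Cell-based luminescence dose-response assay of agonist activity at LXR, run as a confirmatory counterscreen to a daf-12 agonist screen; agonist potency from rising luciferase signal of a Gal4-LXR reporter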
# T1 sequence (P55055 whole entry): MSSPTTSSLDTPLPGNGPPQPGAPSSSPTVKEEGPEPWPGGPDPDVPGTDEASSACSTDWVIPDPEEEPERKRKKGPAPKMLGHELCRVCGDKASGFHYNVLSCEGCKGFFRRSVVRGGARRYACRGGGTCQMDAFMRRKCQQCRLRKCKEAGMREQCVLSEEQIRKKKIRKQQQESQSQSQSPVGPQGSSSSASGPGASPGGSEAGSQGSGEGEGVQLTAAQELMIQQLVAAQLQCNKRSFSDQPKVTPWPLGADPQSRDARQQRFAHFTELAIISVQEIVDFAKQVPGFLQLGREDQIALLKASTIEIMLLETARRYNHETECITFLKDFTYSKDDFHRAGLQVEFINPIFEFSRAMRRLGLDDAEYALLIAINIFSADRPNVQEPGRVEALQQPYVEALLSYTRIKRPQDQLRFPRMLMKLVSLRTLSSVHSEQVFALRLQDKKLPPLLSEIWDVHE
# [3] = target: T1, Oxysterols receptor LXR-beta; experiment: LXR agonists, Gal4 luciferase reporter, dose response, counter-screen for ssDAF-12 agonist project, cell-based, luminescence, HEK293, S. stercoralis campaign (AID 720737); assay type: functional; details: read-out: IC50 (the source's name)
# [4] = Jurkat T cell cytotoxicity, dose response, cytotoxicity control for P. falciparum gametocyte viability project, luminescence (AID 1117277); assay type: functional, cell-based;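 also: potency reflects loss of cellular ATP meaning fewer viable cells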
# [5] = P. falciparum late gametocyte killing, dose response, luminescence (AID 1117278); assay type: functional, cell-based;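 also: gametocytes exposed to compound for 24 hours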
# HEK293 [6] = experiment: NOD1 signaling inhibitors, primary screen, cell-based, luminescence, uHTS (AID 1578); assay type: functional; details: Homo sapiens
# [7] = Vero cell cytotoxicity, dose response, cytotoxicity control for Vif-APOBEC3G degradation inhibitor project, Vero cells (AID 1117358); assay type: functional; details: Human immunodeficiency virus 1, Vero
# HEK293 [8] = experiment: NOD2 signaling inhibitors in MDP-stimulated cells, cell-based, uHTS, luminescence (AID 2001); assay type: functional; details: Homo sapiens
# HEK293 [9] = experiment: cells; assay type: functional, cell-based; details: Homo sapiens
# HEK293 [10] = experiment: cells; assay type: functional, cell-based; details: Homo sapiens; remark: listed apart in the source
# [11] = target: RNA-editing ligase 1, mitochondrial (Trypanosoma brucei brucei, UniProt P86926); experiment: TbREL1 ligase inhibitors, dose response, biochemical, fluorescence, Trypanosoma brucei (AID 1117295); assay type: functional
# Aminopeptidase N = target: T2, Aminopeptidase N (Plasmodium falciparum FcB1/Columbia, UniProt O96935); experiment: P. falciparum M1AAP inhibitors, biochemical, fluorogenic H-Leu-NHMec substrate, 1536-well (AID 1445); parameters: species or system Plasmodium falciparum 3D7, 3D7
# T2 sequence (O96935 whole entry): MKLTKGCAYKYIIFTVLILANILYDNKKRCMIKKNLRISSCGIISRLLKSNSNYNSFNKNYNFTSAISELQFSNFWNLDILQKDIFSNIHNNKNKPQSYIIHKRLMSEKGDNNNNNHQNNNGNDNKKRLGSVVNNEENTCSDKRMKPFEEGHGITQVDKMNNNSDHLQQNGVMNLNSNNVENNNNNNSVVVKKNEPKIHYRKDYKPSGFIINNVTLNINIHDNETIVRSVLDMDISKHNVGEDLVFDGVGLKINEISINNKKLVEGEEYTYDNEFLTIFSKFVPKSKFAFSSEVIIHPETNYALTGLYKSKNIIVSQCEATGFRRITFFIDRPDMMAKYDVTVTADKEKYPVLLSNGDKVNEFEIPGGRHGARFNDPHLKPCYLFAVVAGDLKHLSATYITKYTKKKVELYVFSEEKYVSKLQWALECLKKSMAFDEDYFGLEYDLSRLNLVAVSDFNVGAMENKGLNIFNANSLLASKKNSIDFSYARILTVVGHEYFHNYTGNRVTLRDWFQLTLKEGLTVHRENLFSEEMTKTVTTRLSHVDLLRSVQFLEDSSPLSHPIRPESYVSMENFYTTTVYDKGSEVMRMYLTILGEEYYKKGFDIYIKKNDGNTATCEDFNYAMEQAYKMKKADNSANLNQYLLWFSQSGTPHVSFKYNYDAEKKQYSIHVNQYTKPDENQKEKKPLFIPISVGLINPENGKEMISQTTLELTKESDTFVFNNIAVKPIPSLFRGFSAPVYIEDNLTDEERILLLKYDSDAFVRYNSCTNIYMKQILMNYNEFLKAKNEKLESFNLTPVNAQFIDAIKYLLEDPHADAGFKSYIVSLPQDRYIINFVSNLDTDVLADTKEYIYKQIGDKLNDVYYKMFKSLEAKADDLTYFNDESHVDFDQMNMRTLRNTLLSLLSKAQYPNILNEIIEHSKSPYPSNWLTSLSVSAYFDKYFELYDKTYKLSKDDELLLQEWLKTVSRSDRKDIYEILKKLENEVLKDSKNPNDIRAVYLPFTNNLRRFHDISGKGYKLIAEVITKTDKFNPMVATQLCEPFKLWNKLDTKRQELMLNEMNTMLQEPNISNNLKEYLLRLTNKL
# [12] = target: T3, Zinc finger protein mex-5 (Caenorhabditis elegans, UniProt Q9XUB2); experiment: MEX-5/TCR-2 RNA interaction inhibitors, dose response, biochemical, C. elegans, fluorescence polarization (AID 1960)
# T3 sequence (Q9XUB2 whole entry): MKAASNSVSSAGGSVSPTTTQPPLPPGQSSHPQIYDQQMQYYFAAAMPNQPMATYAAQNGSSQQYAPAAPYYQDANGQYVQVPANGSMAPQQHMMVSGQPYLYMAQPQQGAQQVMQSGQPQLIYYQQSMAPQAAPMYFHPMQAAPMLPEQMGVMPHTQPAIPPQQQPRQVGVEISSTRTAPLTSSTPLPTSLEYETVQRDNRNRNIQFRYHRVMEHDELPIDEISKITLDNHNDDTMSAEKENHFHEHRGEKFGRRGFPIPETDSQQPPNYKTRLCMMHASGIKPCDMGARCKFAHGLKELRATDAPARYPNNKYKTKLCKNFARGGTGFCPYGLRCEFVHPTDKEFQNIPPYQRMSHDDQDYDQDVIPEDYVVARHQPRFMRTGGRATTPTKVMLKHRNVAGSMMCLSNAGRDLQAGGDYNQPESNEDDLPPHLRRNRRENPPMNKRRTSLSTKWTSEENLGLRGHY
# [13] = target: T4, RNA-binding protein pos-1 (Caenorhabditis elegans, UniProt G5EF15); experiment: inhibitors of POS-1/mex-3 RNA binding, dose response, biochemical, fluorescence polarization (AID 1964);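 also: purified POS-1 fused to maltose binding protein made in E. coli; potency of compounds blocking POS-1 binding to fluorescent RNA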
# T4 sequence (G5EF15 whole entry): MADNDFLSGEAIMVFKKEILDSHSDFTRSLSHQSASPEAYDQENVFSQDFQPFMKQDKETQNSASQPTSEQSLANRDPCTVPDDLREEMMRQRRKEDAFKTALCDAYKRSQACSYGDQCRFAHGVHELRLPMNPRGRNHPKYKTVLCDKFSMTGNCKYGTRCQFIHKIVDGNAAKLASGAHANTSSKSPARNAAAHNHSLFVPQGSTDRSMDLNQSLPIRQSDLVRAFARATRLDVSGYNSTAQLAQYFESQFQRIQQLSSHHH
# Albumin = Albumin (Bos taurus, UniProt P02769); experiment: Counterscreen for inhibitors of T-cell receptor (TCR)-CD3 interaction: Fluorescence-based biochemical high throughput dose response assay to identify inhibitors of T-cell receptor (TCR)-CD3 interaction using a TAMRA-labeled BSA probe.; assay type: functional
# Albumin, sequence (P02769 whole entry): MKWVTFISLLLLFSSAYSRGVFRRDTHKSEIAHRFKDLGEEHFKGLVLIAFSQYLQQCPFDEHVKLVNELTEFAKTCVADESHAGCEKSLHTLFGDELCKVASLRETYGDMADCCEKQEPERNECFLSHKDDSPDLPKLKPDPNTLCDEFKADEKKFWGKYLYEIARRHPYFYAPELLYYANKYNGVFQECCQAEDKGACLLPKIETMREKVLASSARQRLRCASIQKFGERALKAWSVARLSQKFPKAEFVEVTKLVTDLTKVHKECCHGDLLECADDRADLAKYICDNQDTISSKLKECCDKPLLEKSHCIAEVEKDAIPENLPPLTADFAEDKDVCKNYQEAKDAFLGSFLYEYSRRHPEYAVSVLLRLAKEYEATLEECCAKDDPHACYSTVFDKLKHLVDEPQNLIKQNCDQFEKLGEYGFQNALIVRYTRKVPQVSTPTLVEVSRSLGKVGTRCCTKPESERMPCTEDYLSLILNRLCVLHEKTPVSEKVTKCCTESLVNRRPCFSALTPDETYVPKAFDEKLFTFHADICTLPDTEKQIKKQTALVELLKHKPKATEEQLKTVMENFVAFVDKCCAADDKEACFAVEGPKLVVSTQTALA
# RNA-editing ligase 1, mitochondrial, sequence (P86926 whole entry): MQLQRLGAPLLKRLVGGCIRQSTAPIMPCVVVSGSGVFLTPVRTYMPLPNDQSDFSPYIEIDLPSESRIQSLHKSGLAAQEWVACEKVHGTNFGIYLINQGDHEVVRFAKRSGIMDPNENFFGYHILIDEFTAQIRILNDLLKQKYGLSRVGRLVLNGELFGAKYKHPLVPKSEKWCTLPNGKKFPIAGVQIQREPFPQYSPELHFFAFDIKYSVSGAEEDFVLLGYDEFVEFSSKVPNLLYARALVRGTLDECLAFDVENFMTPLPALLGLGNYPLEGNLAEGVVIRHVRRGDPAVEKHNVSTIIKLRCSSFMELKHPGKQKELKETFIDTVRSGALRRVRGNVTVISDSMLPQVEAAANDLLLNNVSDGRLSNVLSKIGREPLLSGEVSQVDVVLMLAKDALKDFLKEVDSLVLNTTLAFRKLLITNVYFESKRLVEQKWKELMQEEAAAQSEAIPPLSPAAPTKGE
smiles,measurement,setting,value
COc1ccc(-c2cc(-c3ccccc3O)[nH]n2)cc1,IC50,[1],> 67.6 µM (inactive)
same,EC50,cells,> 67.6 µM (inactive)
same,EC50,[2],> 67.6 µM (inactive)
same,EC50,[3],> 67.6 µM (inactive)
CC(C)Cc1nnc(NC(=O)CSc2nc(O)c(-c3ccccc3)c(O)n2)s1,IC50,[4],> 83.3 µM (inactive)
same,IC50,[5],> 109 µM (inactive)
COc1ccc(NC(=O)c2cccc(S(=O)(=O)Nc3ccc(Br)cc3)c2)cn1,EC50,HEK293 [6],11.2 µM (active)
same,CC50,[7],22.8 µM (active)
same,IC50,HEK293 [8],8.65 µM (active)
same,IC50,HEK293 [9],17.3 µM (active)
same,IC50,HEK293 [10],> 20 µM (inactive)
Cc1n[nH]c(S/C(=C/c2ccc(-c3ccc(C(=O)O)cc3)o2)C(=O)O)n1,IC50,[11],77.9 µM (inactive)
same,IC50,Aminopeptidase N,18.5 µM (active)
same,EC50,[12],1.45 µM (active)
same,EC50,[13],4.1 µM (active)
same,IC50,Albumin,> 94.2 µM (inactive)
